Source: patent US20240398844A1, “PHENYLCOUMARINS FOR TREATING INFLAMMATION” (Ohio State Innovation Foundation, priority 2021, published 2024)
“Also recorded” adds a separate entry of the source. Blank lines part the entries; values can stand above or below the compound they belong to.

How the values were obtained:
PPAR-γ = assay: Diabetic zebrafish Western blot, PPAR-γ expression; assay type: in vivo; conditions: for PPAR-γ expression, dose dependence: diabetic zebrafish, 10, 5, and 1 μM
Protocol: (§1) Alloxan-induced diabetic zebrafish were treated with compounds for immunoblot to validate the newly developed animal model, determine the antidiabetic potential of natural product leads, evaluate glucose metabolism, and discover possible mechanisms of action.
(§2) At 72 hpf, naturally dechorionated zebrafish were sorted into a 24-well microplate with 10 fish per well. Type 2 diabetes was induced with the diabetogenic agent alloxan at a dose of 0.5 mg/mL in system water for 3 hours. The incubation solution was changed to 0.01% DMSO in system water with compounds at concentrations of 20 μg/mL or […], respectively. After 3 hours of treatment with natural product samples, 10 mg/mL D-glucose was administered in system water for 30 minutes, followed by 1 hour in fresh system water to metabolize the glucose and natural product leads. Upon completion of the 4-phase treatment cycle, zebrafish treatment groups were snap frozen into individual microcentrifuge tubes on dry ice, stored overnight at −80° C., thawed, homogenized with 2 μL PBS per animal, and centrifuged at 4° C. for 1 hour at 17,000 rpm. Protein content of homogenate supernatant was determined using the Pierce BCA Protein Assay kit (Pierce Biotechnology) and bovine serum albumin (BSA) standard curve. Absorbance of protein solutions from zebrafish homogenates and serial dilutions of the BSA standard were measured at 544 nm, using a FLUOstar Optima plate reader (BMG Labtechnologies GmbH, Inc.). Homogenates were analyzed by Western blot. Equal amounts of protein (20 μg) were combined with 4× lithium dodecyl sulphate (LDS) loading buffer (NuPAGE, Life Technologies, Carlsbad, CA, USA), brought to volume (15 μL) with PBS, and heated to 95° C. for 5 minutes. Proteins were resolved using NuPAGE Bis-Tris 4-12% gradient sodium dodecyl sulfate polyacrylamide gel electrophoresis (SDS-PAGE) gels together with SeeBlue Plus2 Pre-Stained Standard Ladder (Life Technologies).
(§3) Electrophoresis was performed using NuPAGE MES SDS Running Buffer and XCell SureLock Mini-Cell Electrophoresis System (Life Technologies). Separated proteins were transferred from the gel to a polyvinylidene fluoride (PVDF) membrane using tris buffered saline with Tween-20 (TBST) buffer. The blots were blocked in 3% BSA in TBST and subsequently probed using primary antibodies (1:1000 in 1% BSA in TBST) against each target overnight (Table 1). The secondary, horseradish peroxidase (HRP) conjugated antibodies (1:2000) were obtained from Santa Cruz Biotechnology Inc., (Santa Cruz, CA, USA). Conjugated antibodies were detected using SuperSignal West Femto chemiluminescent substrate from Pierce Biotechnology. […] Band density was quantified for proteins of interest using ImageJ Gel Analysis. […]

PEPCK [1] = assay: Diabetic zebrafish Western blot, PEPCK expression; assay type: in vivo; conditions: 10 μM, FIG. 8
Protocol: as §1, §2, §3

[2] = Solubility in NMR solvents; assay type: physicochemical; conditions: CD3OD
Protocol: Solubility of the fractions was a challenge, and chloroform-d (CDCl3), […], methanol-d4 (CD3OD), dimethyl sulfoxide-d6, and water-d2 (D2O) (Cambridge Isotope Laboratories, Tewksbury, MA, USA) were all tried as solvents. […] Since there was only 1.5 mg of material, further purification and structure elucidation were not pursued.
Fraction 3 was most soluble in D2O, and at approximately 11 mg/mL, ^1H and ^13C NMR data were obtained in an effort to confirm the presence of an isopropyl ether derivative (40). However, solubility of fraction 3 continued to be problematic even in D2O. Further acquisition attempts with increased probe temperature (310 K) were no more successful at keeping the compound (40) in solution.

PEPCK [3] = assay: Diabetic zebrafish Western blot, PEPCK expression; assay type: in vivo; conditions: FIG. 8; for PEPCK expression, efficacy of lower doses: diabetic zebrafish, 5 and 1 μM; for PEPCK expression, dose dependence: diabetic zebrafish, 10, 5, and 1 μM
GLUT-4 = assay: Diabetic zebrafish Western blot, GLUT-4 expression; assay type: in vivo; conditions: 10 μM, FIG. 5
Protocol: as §1
as §2, with “Proteins were resolved using NuPAGE Bis-Tris 4-12% gradient sodium dodecyl sulfate polyacrylamide gel electrophoresis (SDS-PAGE) gels together with SeeBlue Plus2 Pre-Stained Standard Ladder (Life Technologies).” left out
Electrophoresis was performed using NuPAGE MES SDS Running Buffer and XCell SureLock Mini-Cell Electrophoresis System (Life Technologies). […] Conjugated antibodies were detected using SuperSignal West Femto chemiluminescent substrate from Pierce Biotechnology. […] Band density was quantified for proteins of interest using ImageJ Gel Analysis. […]

solubility (relative) [2]: even less soluble than 24
SMILES: COc1cc(O[C@@H]2OCC(O)(CO[C@@H]3OC(CO)[C@@H](O)C(O)C3O)C2O)c2c(-c3ccc(OC(C)C)c(O)c3)cc(=O)oc2c1 (single isomer, unassigned) [Compound 40]
PPAR-γ expression, dose dependence (PPAR-γ; FIG. 9): dose-dependent activation of PPAR-γ; also recorded: not as effective as 24
PEPCK expression versus rosiglitazone (PEPCK [1]): approximately equal efficacy to rosiglitazone
PEPCK expression, efficacy of lower doses (PEPCK [3]): not effective
PEPCK expression, dose dependence (PEPCK [3]): dose-dependent increase in PEPCK expression; also recorded: slightly less active than the parent compound

SMILES: COc1cc(O[C@@H]2O[C@H](CO[C@@H]3OCC(O)(CO)[C@H]3O)[C@@H](O)[C@H](O)[C@H]2O)c2c(-c3ccc(O)c(O)c3)cc(=O)oc2c1 (stereo partly drawn) [Compound 24, 5-O-[β-D-apiofuranosyl-(1→6)-β-D-glucopyranosyl]-7-methoxy-3′,4′-dihydroxy-4-phenylcoumarin]
PPAR-γ expression (Western blot band density) (PPAR-γ; diabetic zebrafish, 10 μM, library screen, FIG. 3 / FIG. 11): greater PPAR-7 expression than the PPAR-γ positive control; also recorded: greatest PPAR-γ activation surpassing even the positive control thiazolidinedione
PPAR-γ expression, dose dependence (PPAR-γ; FIG. 9): dose-dependent activation of PPAR-γ
PPAR-γ expression versus rosiglitazone (PPAR-γ; diabetic zebrafish, same concentration (10 μM), FIG. 9): greater PPAR-γ expression than the FDA-approved PPAR-γ agonist
PEPCK expression versus rosiglitazone (PEPCK [1]): greater gluconeogenic effect than rosiglitazone
GLUT-4 expression (Western blot) (GLUT-4): strong GLUT-4 expression
PEPCK expression, efficacy of lower doses (PEPCK [3]): not effective
PEPCK expression, dose dependence (PEPCK [3]): dose-dependent increase in PEPCK expression
